Measurements published in patent publication US9522914B2, “Azole derivative” (TAISHO PHARMACEUTICAL CO., LTD, priority 2011, dated 2016).

Molecular target: Human V1b receptor (Homo sapiens (Human), UniProt P47901)
Assay: Binding Test for V1b Receptor ([3H]AVP, crude membrane preparation of 293FT cells)
Conditions: inhibition of [3H]AVP binding (0.4 to 1 nmol/L), room temperature, 60 minutes
Outline: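 Crude membranes from 293FT cells transiently expressing human V1b, incubated with [3H]AVP (0.4 to 1 nmol/L) and compound (0.01 nmol/L–1 μmol/L final) in Tris pH 7.4 with MgCl2 and 0.1% BSA, 60 min at room temperature. Bound label collected by filtration. Nonspecific binding defined with unlabeled AVP; IC50 from dose-response curve.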

Sequence of Human V1b receptor (P47901 whole entry): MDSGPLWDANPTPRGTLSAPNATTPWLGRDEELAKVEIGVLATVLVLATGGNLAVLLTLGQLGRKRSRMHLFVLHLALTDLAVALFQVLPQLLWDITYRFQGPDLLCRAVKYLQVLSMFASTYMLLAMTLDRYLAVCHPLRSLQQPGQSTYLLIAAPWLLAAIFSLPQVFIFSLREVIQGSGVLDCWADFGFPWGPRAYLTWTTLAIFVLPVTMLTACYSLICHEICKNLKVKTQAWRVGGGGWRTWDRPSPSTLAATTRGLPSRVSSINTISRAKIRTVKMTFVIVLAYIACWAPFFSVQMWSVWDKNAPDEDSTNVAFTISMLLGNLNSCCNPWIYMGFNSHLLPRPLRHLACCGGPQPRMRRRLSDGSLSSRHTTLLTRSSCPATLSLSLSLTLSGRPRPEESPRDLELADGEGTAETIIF

| Compound | IC50 |
| --- | --- |
| COc1cccc(-c2nc(-c3ccc(CCN4CCN(C(C)=O)CC4)cc3)nn2CC(=O)NC(C)C)c1 [Example B-33, 2-[3-{4-[2-(4-acetylpiperazin-1-yl)ethyl]phenyl}-5-(3-methoxyphenyl)-1H-1,2,4-triazol-1-yl]-N-(propan-2-yl)acetamide] | 0.1 to 1 µM |
| COc1cccc(-c2nc(-c3ccc(CCN4CCC(F)(F)CC4)cc3)nn2CC(=O)NC(C)C)c1 [Example B-40, 2-[3-{4-[2-(4,4-difluoropiperidin-1-yl)ethyl]phenyl}-5-(3-methoxyphenyl)-1H-1,2,4-triazol-1-yl]-N-(propan-2-yl)acetamide] | 0.01 to 0.1 µM |
| CC(C)NC(=O)Cn1nc(-c2ccc(CCN3C4CCC3COC4)cn2)nc1-c1cccc(Cl)c1 [Example B-04, 2-[5-(3-chlorophenyl)-3-{5-[2-(3-oxa-8-azabicyclo[3.2.1]oct-8-yl)ethyl]pyridin-2-yl}-1H-1,2,4-triazol-1-yl]-N-(propan-2-yl)acetamide] | 0.0074 µM |
| COc1cc(-c2nc(-c3ccc(CCN4CCCC4)cc3)cn2CC(=O)NC(C)C)ccc1F [Example A-11, 2-[2-(4-fluoro-3-methoxyphenyl)-4-{4-[2-(pyrrolidin-1-yl)ethyl]phenyl}-1H-imidazol-1-yl]-N-(propan-2-yl)acetamide] | 0.01 µM |
| CC(C)NC(=O)Cc1oc(-c2ccc(CCN3CCCCC3)cc2)nc1-c1cccc(Cl)c1 [Example C-10, 2-[4-(3-chlorophenyl)-2-{4-[2-(piperidin-1-yl)ethyl]phenyl}-1,3-oxazol-5-yl]-N-(propan-2-yl)acetamide] | 0.0065 µM |
| CC(C)NC(=O)Cc1oc(-c2ccc(CCN3CCOCC3)cc2)nc1-c1cccc(Cl)c1 [Example C-11, 2-[4-(3-chlorophenyl)-2-{4-[2-(morpholin-4-yl)ethyl]phenyl}-1,3-oxazol-5-yl]-N-(propan-2-yl)acetamide] | 0.0039 µM |
| CC(C)NC(=O)Cc1nn(-c2ccc(CCN3CCCCC3)cc2)cc1-c1cccc(Cl)c1 [Example C-01, 2-[4-(3-chlorophenyl)-1-{4-[2-(piperidin-1-yl)ethyl]phenyl}-1H-pyrazol-3-yl]-N-(propan-2-yl)acetamide] | 0.021 µM |
| CC(C)(C)NC(=O)Cc1nn(-c2ccc(CCN3CCOCC3)cn2)c(=O)n1-c1ccc(F)c(Cl)c1 [Example D-32, N-tert-butyl-2-[4-(3-chloro-4-fluorophenyl)-1-{5-[2-(morpholin-4-yl)ethyl]pyridin-2-yl}-5-oxo-4,5-dihydro-1H-1,2,4-triazol-3-yl]acetamide] | 0.017 µM |
| COc1cccc(-c2nc(-c3ccc(CCN4CC5(CCOCC5)C4)cc3)nn2CC(=O)NC(C)C)c1 [Example B-37, 2-[5-(3-methoxyphenyl)-3-{4-[2-(7-oxa-2-azaspiro[3.5]non-2-yl)ethyl]phenyl}-1H-1,2,4-triazol-1-yl]-N-(propan-2-yl)acetamide] | < 0.01 µM |
| CC(C)NC(=O)Cc1nc(-c2ccc(CCN3CCCCC3)cc2)sc1-c1cccc(Cl)c1 [Example C-13, 2-[5-(3-chlorophenyl)-2-{4-[2-(piperidin-1-yl)ethyl]phenyl}-1,3-thiazol-4-yl]-N-(propan-2-yl)acetamide] | 0.016 µM |
| COc1cccc(-c2nc(-c3ccc(CCN4CCOCC4)cc3)cn2CC(=O)NC(C)C)c1 [Example A-38, 2-[2-(3-methoxyphenyl)-4-{4-[2-(morpholin-4-yl)ethyl]phenyl}-1H-imidazol-1-yl]-N-(propan-2-yl)acetamide] | 0.01 µM |
| CC(C)NC(=O)Cn1cc(-n2ccc(CCN3CCOCC3)cc2=O)nc1-c1cccc(Cl)c1 [Example A-45, 2-[2-(3-chlorophenyl)-4-{4-[2-(morpholin-4-yl)ethyl]-2-oxopyridin-1(2H)-yl}-1H-imidazol-1-yl]-N-(propan-2-yl)acetamide] | 0.034 µM |
| CC(C)NC(=O)Cc1nc(-c2ccc(CCN3C4CCC3COC4)cc2)nn1-c1cccc(Cl)c1 [Example C-22, 2-[1-(3-chlorophenyl)-3-{4-[2-(3-oxa-8-azabicyclo[3.2.1]oct-8-yl)ethyl]phenyl}-1H-1,2,4-triazol-5-yl]-N-(propan-2-yl)acetamide] | 0.0088 µM |
